Measurements taken from ChEMBL document CHEMBL1141448, “Curcumin induces high levels of topoisomerase I- and II-DNA complexes in K562 leukemia cells” (J Nat Prod, 2007).
Active and inactive are the calls of the source. No cut-off for these calls is given here.

Columns and labels:
K562 [1] = assay: Cytotoxicity against human K562 cells after 5 days by XTT assay; type: functional, cell-based; conditions: K562, 120 h
[2] = molecular target: T1, DNA topoisomerase 1 (Homo sapiens) (UniProt P11387); assay: Binding affinity to topoisomerase 1 in human K562 cells assessed as stability of topoisomerase 1-DNA complex at 70 uM after 48 hrs by TARDIS assay; type: cell-based
T1 sequence (whole entry): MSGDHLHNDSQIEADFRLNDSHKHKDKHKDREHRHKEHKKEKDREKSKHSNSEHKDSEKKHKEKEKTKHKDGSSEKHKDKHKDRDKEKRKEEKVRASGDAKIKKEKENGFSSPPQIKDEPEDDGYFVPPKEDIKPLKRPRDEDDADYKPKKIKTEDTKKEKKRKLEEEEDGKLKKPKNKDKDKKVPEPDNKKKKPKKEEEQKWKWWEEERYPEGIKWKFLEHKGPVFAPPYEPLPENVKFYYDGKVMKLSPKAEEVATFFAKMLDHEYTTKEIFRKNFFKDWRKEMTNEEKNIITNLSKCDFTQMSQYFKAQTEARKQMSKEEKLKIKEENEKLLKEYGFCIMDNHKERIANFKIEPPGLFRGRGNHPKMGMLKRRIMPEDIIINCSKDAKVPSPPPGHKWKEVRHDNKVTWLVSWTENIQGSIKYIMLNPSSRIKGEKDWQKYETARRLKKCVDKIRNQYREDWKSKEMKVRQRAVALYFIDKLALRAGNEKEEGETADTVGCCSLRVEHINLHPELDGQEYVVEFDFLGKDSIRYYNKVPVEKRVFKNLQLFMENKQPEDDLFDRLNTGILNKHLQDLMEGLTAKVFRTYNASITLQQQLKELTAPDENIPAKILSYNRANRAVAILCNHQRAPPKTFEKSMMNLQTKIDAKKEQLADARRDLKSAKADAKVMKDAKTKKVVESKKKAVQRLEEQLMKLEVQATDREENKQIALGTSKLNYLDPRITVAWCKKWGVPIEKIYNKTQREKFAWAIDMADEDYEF

K562 [3] = assay: Binding affinity to topoisomerase 2 in human K562 cells assessed as stability of topoisomerase 2-DNA complex at 70 uM after 48 hrs by TARDIS assay; type: cell-based
[4] = molecular target: T1, DNA topoisomerase 1 (Homo sapiens); assay: Reversal of drug-induced topoisomerase 1-DNA complex in presence of N-acetyl cysteine at 70 uM after 24 hrs
[5] = Reversal of drug-induced topoisomerase 2-DNA complex in presence of N-acetyl cysteine at 70 uM after 24 hrs
K562 [6] = assay: Binding affinity to topoisomerase 2 in human K562 cells assessed as increase in etoposide-induced topoisomerase 2-DNA complex at 20-70 uM after 24 hrs by TARDIS assay; type: cell-based
K562 [7] = assay: Binding affinity to topoisomerase 2 in human K562 cells assessed as increase in […]-induced topoisomerase 2-DNA complex at 20-70 uM after 24 hrs by TARDIS assay; type: cell-based

SMILES	IC50 (K562 [1]) [µM]	other results
COc1cc(NS(C)(=O)=O)ccc1Nc1c2ccccc2nc2ccccc12 [AMSACRINE]	0.023	–
CC[C@@]1(O)C(=O)OCc2c1cc1n(c2=O)Cc2cc3ccccc3nc2-1 [CAMPTOTHECIN]	0.04	–
COc1cc(/C=C/C(=O)CC(=O)/C=C/c2ccc(O)c(OC)c2)ccc1O [CURCUMIN]	6.81	Activity [2]: Active; Activity (K562 [3]): Active; Activity [4]: Active; Activity [5]: Active; Activity (K562 [6]): Active; Activity (K562 [7]): Active
O=C(CC(=O)c1ccccc1)c1ccccc1 [DIBENZOYLMETHANE]	30.9	–
COc1cc([C@@H]2c3cc4c(cc3[C@@H](O[C@@H]3O[C@@H]5CO[C@@H](C)O[C@H]5[C@H](O)[C@H]3O)[C@H]3COC(=O)[C@H]23)OCO4)cc(OC)c1O [ETOPOSIDE]	0.32	–
COc1cc(/C=C/C(=O)O)ccc1O [FERULATE]	> 1000	–
CC(=O)[C@]1(O)Cc2c(O)c3c(c(O)c2[C@@H](O[C@H]2C[C@H](N)[C@H](O)[C@H](C)O2)C1)C(=O)c1ccccc1C3=O [IDARUBICIN]	0.012	–
O=C1c2c(O)ccc(O)c2C(=O)c2c(NCCNCCO)ccc(NCCNCCO)c21 [MITOXANTRONE]	0.0026	–
